{"source": "patent US20260144798A1", "about": "“Disruption of Vascular Smooth Muscle Relaxation by Carfilzomib May be the Primary Reason for CFZ-Induced Vascular Dysfunction” (AMGEN INC., priority 2019, published 2026)", "key": {"[1]": {"tested_on": "sGC-β", "assay": "Western blot of sGC-β in rat aortic smooth muscle cells", "type": "cell-based", "details": "CFZ for more than 12 hours (FIG. 4A)", "procedure": "Each cell pellet was lysed in 50 to 70 μL RIPA buffer (Cell Signaling Technology, Danvers, MA) with the Halt™ protease and phosphatase inhibitor cocktail (Thermo Fisher Scientific). Lysates were quantitated and loaded onto the Li-COR Western blot system. Antibodies specific to phosphorylated eNOS and eNOS from Thermo Fisher Scientific, anti-Guanylyl Cyclase β1 (ER-19) (Sigma-Aldrich), and β-Actin (Sigma-Aldrich) were diluted 1:1000 for Western blot. Antibodies specific to p-VASP, VASP, and GADPH-HRP were purchased from Cell Signaling Technology."}, "[2]": {"tested_on": "mice", "details": "depending on dosage and administration schedule; cited from earlier work"}, "[3]": {"tested_on": "rat aortic rings", "assay": "Basal vascular tone of isolated rat aortic rings, isometric myograph", "procedure": "An isometric myograph (DMT 620M) was used for ex vivo measurement of vascular function. Eight-to 10-week old Sprague Dawley rats (purchased from Charles River Laboratories, Wilmington, MA) were first anesthetized with 3% isoflurane and then euthanized using inhaled desflurane. The aortas were isolated in an ice-cold, oxygenated (95% O2, 5% CO2) Krebs-Henseleit buffer (118.3 mM NaCl, 4.7 mM KCl, 1.2 mM MgSO4, 1.2 mM KH2PO4, 2.5 mM CaCl2, 25 mM NaHCO3, and 11.0 mM glucose; purchased from Sigma-Aldrich, St. Louis, MO). The thoracic aorta was carefully cleaned to remove perivascular fat and cut into 2-mm rings that were mounted between two stainless steel wires in the myograph chamber containing 8 mL of Krebs-Henseleit buffer in 95% O2 and 5% CO2 at 37° C. First, the rings were equilibrated in the chamber for 20 minutes, followed by a gradual increase of mechanical stretch until a final stretch of 10 mN (Newton) was reached. After an additional incubation with fresh buffer for 30 minutes, the rings were constricted with 8 mL of 80 mM KPSS (43 mM NaCl, 80 mM KCl, 2.5 mM CaCl2, 1.2 mM MgSO4, 1.2 mM KH2PO4, 25.0 mM NaHCO3, and 11.0 mM glucose) for 15 to 20 minutes, followed by 3 washes with the Krebs-Henseleit buffer until the force returned to the baseline stretch. The tension of the aortic rings was continuously measured with the Lab Chart 7 data acquisition system (ADInstruments, Colorado Springs, CO). In Some of the experiments the aortic rings were pre-treated with 100 μM N(gamma)-nitro-L-arginine methyl ester (L-NAME; Sigma-Aldrich) and 10 μM indomethacin for 10 minutes prior to the pre-incubation with CFZ (Amgen Inc.) for 2 hours. After an additional incubation with fresh buffer for 30 minutes, the rings were constricted with 8 mL of 80 mM KPSS (43 mM NaCl, 80 mM KCl, 2.5 mM CaCl2, 1.2 mM MgSO4, 1.2 mM KH2PO4, 25.0 mM NaHCO3, and 11.0 mM glucose) for 15 to 20 minutes, followed by 3 washes with the Krebs-Henseleit buffer until the force returned to the baseline stretch. The tension of the aortic rings was continuously measured with the Lab Chart 7 data acquisition system (ADInstruments, Colorado Springs, CO).\nTo assess the effect of CFZ on vascular contraction, the aortic rings were pre-treated with or without CFZ for 2 hours, followed by treatment with an increasing concentration of phenylephrine (PE) from 10 nM to 1 μM. After the maximum contraction was achieved, the aortic rings were washed 3 times until the force returned to baseline. The contraction was continuously measured and plotted as percent contraction normalized to the response of KPSS. […] The relaxation was continuously measured and plotted as percent relaxation normalized to the response with 1 μM PE. […]"}, "[4]": {"assay": "Highest applicable CFZ concentration in the myograph chamber (saturation, precipitation)", "type": "physicochemical", "details": "oxygenated myograph chamber, Krebs-Henseleit buffer"}, "[5]": {"tested_on": "rat aortic rings", "assay": "Nifedipine-induced relaxation of rat aortic rings", "details": "pretreatment of aortic rings with CFZ (FIG. 2C)", "procedure": "(§1) An isometric myograph (DMT 620M) was used for ex vivo measurement of vascular function. Eight-to 10-week old Sprague Dawley rats (purchased from Charles River Laboratories, Wilmington, MA) were first anesthetized with 3% isoflurane and then euthanized using inhaled desflurane. The aortas were isolated in an ice-cold, oxygenated (95% O2, 5% CO2) Krebs-Henseleit buffer (118.3 mM NaCl, 4.7 mM KCl, 1.2 mM MgSO4, 1.2 mM KH2PO4, 2.5 mM CaCl2, 25 mM NaHCO3, and 11.0 mM glucose; purchased from Sigma-Aldrich, St. Louis, MO). […] The tension of the aortic rings was continuously measured with the Lab Chart 7 data acquisition system (ADInstruments, Colorado Springs, CO). […]\n(§2) To assess the effect of CFZ on vascular contraction, the aortic rings were pre-treated with or without CFZ for 2 hours, followed by treatment with an increasing concentration of phenylephrine (PE) from 10 nM to 1 μM. […] The contraction was continuously measured and plotted as percent contraction normalized to the response of KPSS. […] The relaxation was continuously measured and plotted as percent relaxation normalized to the response with 1 μM PE."}, "[6]": {"tested_on": "rat aortic rings", "assay": "Vasopressor-induced contraction of rat aortic rings, myograph", "procedure": "as §1, §2"}, "[7]": {"tested_on": "isolated rabbit hearts and aortic strips", "details": "cited from earlier work"}, "[8]": {"tested_on": "GUCY1A3", "assay": "GUCY1A3 gene expression by RT-PCR in human aortic smooth muscle cells", "type": "cell-based", "details": "24-hour treatment, 2.7 μM CFZ, SMCs (FIG. 4B)", "procedure": "To confirm whether results could be replicated in human tissue, human aortic smooth muscle cells (Lonza, Walkersville, MD) were cultured in SmGM-2™ Smooth Muscle Cell Growth Medium-2 BulletKit™ (Lonza). The cells were maintained at 37° C. in a humidified incubator with 5% CO2. Cells were seeded at a concentration of 2.5×10^5 cells/mL of medium. After 1 day of culture, fresh medium with or without 2.7 μM CFZ was added and incubated for 6 or 24 hours.\nCell pellets were lysed in Buffer RLT (Qiagen, Germantown, MD) supplemented with β-mercaptoethanol (Bio-Rad, Hercules, CA). RNA was isolated and purified using QIAcube (Qiagen). The RNA concentration and quality were determined by NanoDrop 8000 spectrophotometer (Thermo Fisher Scientific, Wilmington, DE). DNA contaminant was removed through DNase I (Promega, Madison, WI) digestion prior to quantitative RT-PCR. Quantitative RT-PCR was performed in the QuantStudio 7 Flex RT-PCR system (Thermo Fisher Scientific) with RNA-to-CT 1-Step Kit (Thermo Fisher Scientific) and TaqMan assays (Applied Biosystems, Foster City, CA). The TaqMan assays were GUCY1A3(Hs01015574_m1) and 18S rRNA. Multiplex reactions were run in triplicates with the genes of interest and 18S rRNA normalization control. The average relative quantities were calculated from three separate experiments."}}}
{"smiles": "CC(C)C[C@H](NC(=O)[C@H](CCc1ccccc1)NC(=O)CN1CCOCC1)C(=O)N[C@@H](Cc1ccccc1)C(=O)N[C@@H](CC(C)C)C(=O)[C@@]1(C)CO1", "note": "[CFZ, carfilzomib]", "values": [{"measurement": "sGC-β protein level", "setting": "[1]", "value": "increased with increasing exposure to CFZ"}, {"measurement": "effect on AMPKα/mTORC1 and PI3K/Akt/eNOS pathways", "setting": "[2]", "value": "inhibit AMPKα/mTORC1 pathways"}, {"measurement": "percent contraction under eNOS inhibition (limited NO availability)", "setting": "[3]; 100 μM L-NAME and 10 μM indomethacin 10 minutes prior to 2-hour CFZ treatment, vs vehicle (FIG. 1B)", "value": "significant but minor increase of percent contraction"}, {"measurement": "vascular tone (contraction normalized to 80 mM KPSS)", "setting": "[3]; 100 μM LNAME+10 μM indomethacin, 2.7 μM CFZ for 3 hour, vs vehicle (FIG. 10)", "value": "increase in vascular tone compared to vehicle"}, {"measurement": "percent contraction (basal vascular tone)", "setting": "[3]; rings pretreated with CFZ without L-NAME, compared with vehicle control (FIG. 1A)", "value": "did not affect vascular tone"}, {"measurement": "highest CFZ concentration that could be applied; further increase gave saturated solution and precipitation", "setting": "[4]", "value": 2.7, "unit": "µM"}, {"measurement": "effect on vascular relaxation in the presence of nifedipine", "setting": "[5]", "value": "did not appear to significantly affect vascular relaxation"}, {"measurement": "effect on phenylephrine-induced vascular contraction", "setting": "[6]; CFZ 0.3, 0.9 or 2.7 μM, increasing phenylephrine (FIG. 1C)", "value": "No significant CFZ effect on vascular contraction"}, {"measurement": "effect on potassium chloride-induced vascular contraction", "setting": "[6]; CFZ vs vehicle, increasing potassium chloride (FIG. 1D)", "value": "No significant CFZ effect on vascular contraction"}, {"measurement": "coronary perfusion pressure, resting vascular tone, and spasmogenic effects", "setting": "[7]", "value": "increased"}, {"measurement": "vasodilating effect induced by acetylcholine (ACh)", "setting": "[7]", "value": "sharply reduced"}, {"measurement": "upregulation of GUCY1A3 gene expression", "setting": "[8]", "value": "more than 25 fold"}]}
